Marks after values point to notes of the source that are not given here.
Columns and labels:
HBV capsid = HBV capsid (Hepatitis B virus genotype D subtype ayw, UniProt P03146); experiment: Intracellular HBV capsid formation; assay type: cell-based; settings: HepAD38 or HepG2-HBV1.3 cells, compounds 10 μM, ETV 25 nM, BAY 41-4109 2 μM, 6 days
[1] = CCK-8 cytotoxicity assay in HepAD38 cells; assay type: cell-based, Human; settings: human, 6 days
HBV = experiment: Secreted HBV DNA in HepAD38 culture supernatant (RT-qPCR); assay type: cell-based; settings: HepAD38 cells; for EC50: Hepatitis B virus, 144 h, 6 days, read-out: EC50 (secreted HBV DNA); for Residual HBV DNA level (secreted) relative to DMSO control: 20 μM compound
HBV encapsidated pgRNA = experiment: Encapsidated pgRNA and total HBV RNAs (Northern blot); assay type: cell-based; settings: HepAD38 cells, C-18, C-39, C-19 5 μM, ETV 25 nM, BAY 41-4109 2 μM
HepAD38 cells = experiment: CCK-8 cytotoxicity assay in HepAD38 cells; assay type: cell-based, Human

Chain of HBV capsid (P03146 whole entry): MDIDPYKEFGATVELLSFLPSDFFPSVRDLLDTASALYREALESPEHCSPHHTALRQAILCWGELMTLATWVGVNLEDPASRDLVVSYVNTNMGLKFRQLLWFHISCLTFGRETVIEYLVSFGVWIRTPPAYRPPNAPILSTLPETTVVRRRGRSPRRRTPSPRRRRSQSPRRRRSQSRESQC

Compound	Effect on intracellular HBV capsid formation at single concentration (HBV capsid)	CC50 at 6 days [1]	SI (CC50/EC50) (HBV)	EC50 (HBV)	Residual HBV DNA level (secreted) relative to DMSO control (HBV)	Effect on HBV encapsidated pgRNA (HBV encapsidated pgRNA)	Cytotoxicity in words (HepAD38 cells)
O=C(CSc1nnc(-c2cccs2)n1CCc1ccccc1)Nc1ccc(F)cc1 [Compound C-7]	moderate inhibition	> 100000 nM	>54.7	1830 ± 440 nM			
Cc1nc(-c2csc(S(=O)(=O)N3CCCC(C(=O)Nc4ccc(F)c(Cl)c4)C3)c2)no1 (centres unmarked) [Compound C-41]		95600 ± 15700 nM	1542 ^a	62 ± 13 nM			
Cc1nnc2ccc(N3CCCC(C(=O)Nc4ccc(F)c(Cl)c4)C3)nn12 (centres unmarked) [Compound C-4]					21%		
CC1(C(=O)NCc2ccc(F)cc2)CCCN(C(=O)Nc2ccc(F)c(Cl)c2)C1 (centres unmarked) [Compound C-27]		81500 ± 5800 nM	72.8 ^a	1120 ± 50 nM			
Cc1cccc(NC(=O)c2ccc3nnc(SCC(=O)Nc4ccc(F)c(F)c4)n3c2)c1 [Compound C-16]	did not affect the capsid formation	72400 ± 1900 nM	56.3	1290 ± 350 nM			
Nc1nc(N2C(=O)C3CC=CCC3C2=O)nn1-c1ccccc1 (centres unmarked) [Compound C-5]					51%		
CC(=O)N1c2ccc(S(=O)(=O)N3CCCC(C(=O)Nc4ccc(F)c(Cl)c4)C3)cc2CC1C (centres unmarked) [Compound C-31]		25000 ± 3300 nM	96.0 ^a	260 ± 30 nM			
O=C(Nc1ccc(F)c(F)c1)c1cc(S(=O)(=O)N(CCc2ccccc2)Cc2ccccc2)ccc1F [Compound C-19]	did not affect the capsid formation	75300 ± 5200 nM	194.1	390 ± 130 nM		slight effects	
CC1Oc2ccc(S(=O)(=O)N3CCCC(C(=O)Nc4ccc(F)c(Cl)c4)C3)cc2NC1=O (centres unmarked) [Compound C-35]		9800 ± 1000 nM	23.9 ^a	410 ± 10 nM			medium cytotoxicity
Cc1cc(O)c(C2=Nc3c(C(N)=O)cnn3C(c3cccc(Cl)c3)C2)c(=O)o1 (centres unmarked) [Compound C-6]					36%		
O=C(CSc1nnc2ccc(C(=O)Nc3cccc(F)c3)cn12)Nc1ccc(F)c(F)c1 [Compound C-25]		33200 ± 1900 nM	114.6 ^a	290 ± 20 nM			

Reference: publication PMC8876525 (Viruses, 2022)
